Common to all, as to type: cell-based
Series [1] relates to HIV-1NL4-3. The series is described as follows: HIV-1 infectivity in TZM-bl cells (F-Luc).
Method: The TZM-bl cells (also referred to as JC53BL-13) expressing human CD4, CXCR4, and CCR5 carrying the F-Luc and lacZ genes downstream of the HIV-1 LTR promoter ([60]) were used to determine the inhibitory effect of the compounds on HIV-1 infection, as previously described ([11], [12], [61]). In brief, 1 × 10^4 cells were cultured in 96-well plates for 24 h and subsequently treated with compounds at the indicated concentrations. Without replacement of the culture medium, the cells were subsequently infected with the HIV-1NL4-3 wild-type or ARV-resistant HIV-1 strains at an MOI of 1 to determine the exact inhibitory effect of compounds on a single-round infection. After 48 h, the inhibitory effect of the compounds was determined using a Bright Glo luciferase assay kit (Promega) or β-Galactosidase Enzyme Assay kit (Promega). The infectivity data were presented as a percentage relative to the dimethyl sulfoxide (DMSO) control (vehicle). Cell viability was determined using the resazurin-based PrestoBlue Cell Viability Reagent (Thermo Fisher Scientific, Waltham, MA, USA) following the manufacturer’s instructions.
The test system of series [2] is HIV-1NL4-3. Briefly: HIV-1 replication in PBMCs (p24 […]). The conditions noted are these: for EC50: Human immunodeficiency virus 1, PBMC, 72 h. Here is the method: The p24 level from the cell supernatant was subsequently determined using a p24 […] kit (PerkinElmer). In parallel, the cell viability was determined without viral infection because of the viral cytopathic effect. […] In parallel, cell viability was determined. The data (A and B) are presented as the mean ± SD (n = 3). (C) PBMCs (4 × 10^5) infected with HIV-AD8 at an MOI of 0.1 were treated with 1.5 µM of the compounds or ARVs for 3 days. The levels of p24 and cell viability were subsequently determined. (D) J1.1 cells were cultured with the compounds ([…]) under 50 ng/mL phorbol myristate acetate (PMA) treatment for 2 days. The level of p24 was subsequently determined. (E) J-Lat 6.3 cells were treated with the compounds (1.5 µM) under 1 µg/mL of PMA for 2 days. The GFP-positive cell population was analyzed using flow cytometry. The data are represented as a value relative to the DMSO-treated vehicle (D) and a percent of the GFP^+ cell population (E) as mean ± SD (n = 3).
The inhibitory effects of the compounds on viral replication were determined with some minor modifications, as previously described ([12], [62]). […] PBMCs (4 × 10^5) pre-activated with PHA-M for 3 days were washed with fresh media to remove excess PHA-M and subsequently infected with HIV-1NL4-3 or HIV-1AD8 or PIs-resistant HIV-1 strains as A3.01 infection. After infection, the infectious media were replaced with fresh media supplemented with international 10 units (IU)/mL of IL-2 and the indicated compounds. At 72 h after infection, the inhibitory effect of the compounds on viral replication was determined by measuring the p24 amount, an HIV capsid protein, using an HIV-1 p24 […] kit (PerkinElmer, Waltham, MA, USA). Cell viability was determined as described above. The inhibitory effects on provirus reversing in J1.1 and J-Lat 6.3 cells were determined as previously described ([12], [41], [63]) with some minor modifications. Briefly, 5 × 10^4 persistently HIV-1-infected J1.1 or J-Lat 6.3 cells were cultured in either the presence or absence of the compounds at a final concentration of 1.5 µM and treated with PMA (50 ng/mL for J1.1 cells, 1 µg/mL for J-Lat 6.3 cells). Two days after treatment, the levels of viral production were determined using p24 […] for J1.1 cells and flow cytometry analysis for GFP-expressing J-Lat 6.3 cells.

The target of series [3] is T1, interaction between Tat and cyclin T1 (Human immunodeficiency virus type 1 group M subtype B, UniProt P04608).
T1 construct: expressed in transfected cells; the methods paragraph b60 says 293T
T1 sequence (P04608 whole entry): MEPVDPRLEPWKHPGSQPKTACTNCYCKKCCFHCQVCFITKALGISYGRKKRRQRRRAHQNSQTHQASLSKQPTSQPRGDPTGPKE
Briefly: Co-immunoprecipitation of Tat and cyclin T1. The conditions noted are these: co-immunoprecipitation in transfected cells. How it is done:
The co-immunoprecipitation assay was performed as previously described ([12], [58]). Briefly, 293T cells were transfected with Tat-expressing plasmids (pcDNA3–Flag–Tat86) using Lipofectamine 2000 (Invitrogen). After 48 h, the cells were lysed in an immunoprecipitation buffer [250 mM NaCl, 0.5% NP-40, 50 mM Tris-HCl (pH 7.5), 5 mM ethylenediaminetetraacetic acid, and protease/phosphatase inhibitor cocktail]. The cell lysates were subsequently incubated with an anti-Flag monoclonal antibody (M2; Sigma-Aldrich) at 4°C. After overnight incubation, the immune complex was then pulled down with protein A/G-agarose beads (Santa Cruz Biotechnology) and analyzed using western blotting.
Supplementary Figure S6. A. Quantitativereal-timePCRofHIV-1mRNAfromHIV-1 NL4-3-infectedA3.01cells treated oruntreatedwiththeindicatedcompoundswasperformedusingthe envprimerset,andlevelswerenormalizedtothoseof gapdh. Thedata
represent the relative fold change compared with DMSO treatment (n = 3).B. Effect of the compounds on NF-κB promoter activity assessed using a luciferase assay. […]
pCMV-R-Luc (200 ng). […] Theluciferase activity was determined using aDual-GloTMLuciferase assaykit (Promega).
The data normalized to the R-Luc activity are expressed as themean±SD (n = 3) of the relative fold activitycompared with the no-PMA(vehicle) treatment.C. […]

[4] abbreviates: HIV-1NL4-3 MOI 0.1, 3 days, p24, read-out: EC50.
[5] abbreviates: Human immunodeficiency virus 1, TZM-bl, Table S1, WT virus, TZM-bl, read-out: EC50.
Where [6] appears, read: Human immunodeficiency virus 1, TZM-bl, 48 h, Table S1, WT virus, TZM-bl, fivefold serial dilutions, MOI 1, 48 h, read-out: EC50.
The mark [7] stands for this setting: HIV-1NL4-3 MOI 0.1, 3 days, p24, mean ± SD, read-out: EC50.
Where [8] appears, read: Table S1, WT virus, 10-fold serial dilution, p24, 3 days, read-out: EC50.

As a reminder, the EC50 is the concentration needed to bring the measured effect to its halfway point. As to `CC(C)[C@]12O[C@H]1[C@@H]1O[C@]13[C@]1(O[C@H]1C[C@H]1C4=C(CC[C@@]13C)C(=O)OC4)[C@@H]2O` [triptolide, reference compound], the EC50 in series [1] (Human immunodeficiency virus 1, TZM-bl, 48 h, TZM-bl cells infected with HIV-1NL4-3 at MOI 1, 48 h, read-out: EC50) worked out at 0.00038 ± 7e-05 µM; in series [2] (setting [4]), 0.0169 ± 0.00375 µM. Moreover, the “SI (CC50/EC50)” value in series [1] (TZM-bl cells) worked out at 52.63; in series [2], 11.23.
As to `C[C@@H]1CCO[C@H]2Cn3cc(C(=O)NCc4ccc(F)cc4F)c(=O)c(O)c3C(=O)N12` [DTG, dolutegravir, reference compound], the EC50 was 0.001 µM in series [1] (setting [5]) and less than 0.001 µM in series [2] (setting [4]). For the same compound, the “SI (CC50/EC50)” value in series [2] is >18,270.
The like results for `O=C1Nc2ccc(Cl)cc2[C@@](C#CC2CC2)(C(F)(F)F)O1` [EFV, efavirenz, reference compound] were, in that order, less than 0.001 µM, less than 0.001 µM and >29,460.
As a reminder, the EC90 is the concentration at which the effect reaches the 90% level. Consider `Cc1[nH]c2ccc(-c3nnc(SCC(=O)N4CCCCC4)o3)cc2c1C` [Compound 9, 2-((5-(2,3-Dimethyl-1H-indol-5-yl)-1,3,4-oxadiazol-2-yl)thio)-1-(piperidin-1-yl)ethan-1-one], for which the EC50 in series [1] (Human immunodeficiency virus 1, TZM-bl, 48 h, TZM-bl cells infected with HIV-1NL4-3 at MOI 1, 48 h, F-Luc, mean ± SD, read-out: EC50) came to 0.17 ± 0.02 µM; in series [1] (setting [6]), 0.13 ± 0.02 µM; in series [2] (setting [7]), 0.14 ± 0.01 µM; in series [2] (setting [8]), 0.1 µM. For the same compound, the EC90 in series [1] (Human immunodeficiency virus 1, TZM-bl cells, read-out: approximate EC90) was roughly 1.5 µM. The “SI (CC50/EC50)” value is on record as 371.76 in series [1] (TZM-bl cells) and 315.14 in series [2]. In addition, the “change in interaction between Tat and cyclin T1” value in series [3] is on record as “no changes were observed”.
Regarding `Cc1[nH]c2ccc(-c3nnc(SCC(=O)N4CCCC4)o3)cc2c1C` [Compound 13, 2-((5-(2,3-Dimethyl-1H-indol-5-yl)-1,3,4-oxadiazol-2-yl)thio)-1-(pyrrolidin-1-yl)ethan-1-one], the EC50 was determined as 0.18 ± 0.05 µM in series [1] (Human immunodeficiency virus 1, TZM-bl, 48 h, TZM-bl cells infected with HIV-1NL4-3 at MOI 1, 48 h, F-Luc, mean ± SD); 0.2 ± 0.02 µM in series [1] (setting [6]); 0.24 ± 0.03 µM in series [1] (TZM-bl cells infected with HIV-1NL4-3 at MOI 1, 48 h, F-Luc, mean ± SD, read-out: EC50); 0.16 ± 0.02 µM in series [2] (setting [7]); 0.1 ± 0.01 µM in series [2] (setting [8]). The results for the “SI (CC50/EC50)” value in series [1] (TZM-bl cells) and in series [2] were 196.33 and 282.81, respectively. In addition, the “change in interaction between Tat and cyclin T1” value in series [3] was “no changes were observed”.

Source of the values: article PMC11459959, “Discovery of new acetamide derivatives of 5-indole-1,3,4-oxadiazol-2-thiol as inhibitors of HIV-1 Tat-mediated viral transcription” (Antimicrobial Agents and Chemotherapy, 2024).
